# Assays:
# Format in all cases: in vivo, C57BL/6 mice
# old mice (~20 months) [1] = assay: Y maze test for spatial memory; conditions: percentage of time in novel arm; single intrahippocampal injection; two weeks after surgery; versus vehicle
# Procedure: (§1) Different experimental group of old mice (~20 months of age) were randomly injected on the hilus region of both brain hemispheres with vehicle (PBS or destillated water) or with one of four different molecules: Vitamin B12 (50 mg/ml; Vet one, ref: 510218), S-(5'-Adenosyl)-L-methionine chloride (0,25 mg/ml; Sigma, ref: A7007), folic acid (0,25 mg/ml; Sigma, ref: F7876-10G) or synthetic FRa binding peptide, peptide having amino acid sequence SEQ ID NO: 1, (2,5 mg/ml and 5 mg/ml, diluted in PBS; Abyntec). The pH of Vitamin B12, methionine or folic acid were adjusted to ~7 to avoid negative effects due to overly acidic medium. One week after intracerebral injections, mice were assessed with behavioural (open field trial) and memory tests (novel object recognition) to study potential functional effects of different metabolites on central nervous system. Two weeks after surgeries mice were finally perfused just after finalized Y maze test performing. […]
# To assess spatial memory, an Y maze test based on published protocols with modifications (Kraeuter AK, et al. The Y-Maze for Assessment of Spatial Working and Reference Memory in Mice. Methods Mol Biol. 2019;1916:105-111. ) was performed. […] The number of entries into and the time spent in each arm, were registered from video recordings and analysed by AnyMaze software. […]
# perineuronal nets (PNN) = assay: Perineuronal nets (PNN) density labeled with WFA in dentate gyrus; conditions: single intrahippocampal injection, versus vehicle-injected aged mice
# Procedure: as §1, with “system.” for “system. Two weeks after surgeries mice were finally perfused just after finalized Y maze test performing.”
# (§2) Quantifications for density of DCX/Blbp/CIdU-immunoreactive positive cells were performed by counting in four different consecutive medial brain sections the number of cells localized in each whole DG (distinguishing between SGZ and GCL) and the adjacent hilus region. For perineuronal nets of extracellular matrix, positive units labelled with WFA were counted in the dentate gyrus (including granular cell layer and hilus) from three different consecutive medial brain sections. […]
# old mice (~20 months) [2] = assay: Novel object recognition test (NOR), memory index; conditions: single intrahippocampal injection, versus vehicle; for recognition memory at short term: 2 hours after training trial; for recognition memory at long-term: 5 days after training trial
# Procedure: (§3) Different experimental group of old mice (~20 months of age) were randomly injected on the hilus region of both brain hemispheres with vehicle (PBS or destillated water) or with one of four different molecules: Vitamin B12 (50 mg/ml; Vet one, ref: 510218), S-(5'-Adenosyl)-L-methionine chloride (0,25 mg/ml; Sigma, ref: A7007), folic acid (0,25 mg/ml; Sigma, ref: F7876-10G) or synthetic FRa binding peptide, peptide having amino acid sequence SEQ ID NO: 1, (2,5 mg/ml and 5 mg/ml, diluted in PBS; Abyntec). The pH of Vitamin B12, methionine or folic acid were adjusted to ~7 to avoid negative effects due to overly acidic medium. One week after intracerebral injections, mice were assessed with behavioural (open field trial) and memory tests (novel object recognition) to study potential functional effects of different metabolites on central nervous system. Two weeks after surgeries mice were finally perfused just after finalized Y maze test performing.
# (§4) After anesthesia with isofluorane, mice were secured in a stereotaxic frame (Kopf). Holes were drilled bilaterally in the skull at the injection sites (one per hemisphere) by microdrill with 0.5 mm drill bit. Stereotaxic coordinates used for intrahippocampal injections were as follows (from bregma): anterior-posterior 2.2, lateral 1.4, dorsoventral 2.0. A 33-gauge needle Hamilton syringe coupled to a syring pump controller mounted to the stereotaxic frame was used to inject 2µl of vehicle or metabolites at each site. Injections occurred at a rate of 0.25 µl/min, after which the needle was left in place for an additional 3 min, stopping another 3 minute in the halfway. After injections were completed, the skin was sutured and the animals were allowed to recover for 1 h on a heating pad before returning to the home cage. Mice remained in the home cage for an additional 1 week before the start of behavioral testing, being sacrificed 2 weeks after surgery.
# Both open field (OF) and novel object recognition (NOR) tests were performed as described previously (Rodríguez-Matellán A, et al., In Vivo Reprogramming Ameliorates Aging Features in Dentate Gyrus Cells and Improves Memory in Mice. Stem Cell Reports. 2020 Nov 10;15(5):1056-1066. ). Locomotor activity as well as anxiety and depression-like behaviours in old mice were evaluated using OF. This test was used as habituation of NOR test. In brief, on the first day, the mice were placed individually for 10 min in a 45x45-cm plastic box with vertical opaque walls. Each session was recorded and different data like distance, speed, immobile time and time on center square of the box were analysed with Anymaze software. On the second day, mice were placed in the same box for 5 min, allowing them to explore two identical objects: A and B (two black rooks). Both objects were placed on the long axis of the cage, each 13 cm from the cage end. After each exposure, the objects and the cage were wiped with 70% ethanol to eliminate odors which potentially could condition successive mice behaviour. Two hours after the familiarization trial, each mouse was released into the box with the same object previously used (object A) and a new one (object C, a tower of coloured plastic pieces), instead of the object B (short-term memory test). The position of object C was the same as that of object B in the familiarization trial. The mice were given 5 min to explore the box. Five days later, the mice were released again into the box, with object A in the same position and another new object (object D, a falcon tube filled with wood chips) in the same position of the object C in the previous test. Again, animals were allowed 5 min to explore the box (Long-term memory test). Animals were considered to show recognition when their head was <2 cm from the object.
# The memory index (Ml) was used to measure recognition memory performance. […]
# [3] = tested on: neuronal precursors cells; assay: Adult neurogenesis markers in dentate gyrus, immunofluorescence cell density; conditions: subgranular zone; unique dose hippocampal injection; versus vehicle
# Procedure: as §3, §4
# Mice received three injections each 2 hours (200 ul/injection, in alternative sides of body) of 5-Chloro-2'-deoxy-Uridine (CldU, Sigma reference C6891; i.p. 42.75 mg/Kg bw) one week after cranial surgery and microinjections of solutions. In this way we were able to follow the effects of treatment in the proliferation of new cells at the subgranular zone, essential zone for neurogenesis process. […]
# as §2
# 5-methycytosine (5mC) = assay: DNA methylation immunofluorescence in hippocampal neurons; conditions: versus vehicle
# Procedure: as §3
# as §4, with “After injections were completed, the skin was sutured and the animals were allowed to recover for 1 h on a heating pad before returning to the home cage. Mice remained in the home cage for an additional 1 week before the start of behavioral testing, being sacrificed 2 weeks after surgery.” left out
# (§5) For 5mC, H3K9me3 and H4K20me3 antibodies, acquisition confocal settings (laser intensity, gain, pinhole) were kept constant for all images, which were captured in the same confocal session. […] The area above the threshold was then measured in Fiji and the mean fluorescence in the ROI was calculated and compared between vehicle and folate experimental groups.
# H4K20me3 = assay: Histone methylation immunofluorescence in dentate gyrus; conditions: 14 days since injection, versus vehicle
# Procedure: as §3
# (§6) After anesthesia with isofluorane, mice were secured in a stereotaxic frame (Kopf). […]
# as §5
# H3K9me3 = assay: as above; conditions: 14 days since injection, versus vehicle
# Procedure: as §3, §6, §5
# Dnmt1 = assay: Western blot of Dnmt1 in hippocampal extracts; conditions: western blot densitometry; versus vehicle
# Procedure: as §3, §6
# Mice were anesthetized with an intraperitoneal pentobarbital injection (Dolethal, 60 mg/kg body weight) and transcardially perfused with saline. […] Serial parasagittal sections ([…] thick) were cryoprotected in 30% sucrose solution in PB and stored in ethylene glycol/glycerol at […] until they were analyzed. […]
# [4] = tested on: 5-hydroxymethylcytosine (5hmc); assay: DNA hydroxymethylation in hippocampal neuronal layers; conditions: versus vehicle
# Procedure: as §3
# (§7) After anesthesia with isofluorane, mice were secured in a stereotaxic frame (Kopf). Holes were drilled bilaterally in the skull at the injection sites (one per hemisphere) by microdrill with 0.5 mm drill bit. Stereotaxic coordinates used for intrahippocampal injections were as follows (from bregma): anterior-posterior 2.2, lateral 1.4, dorsoventral 2.0. […]
# GluN2B = GluN2B immunoreactivity in molecular layer of dentate gyrus; conditions: single intrahippocampal injection, versus vehicle
# Procedure: as §3
# After anesthesia with isofluorane, mice were secured in a stereotaxic frame (Kopf). Holes were drilled bilaterally in the skull at the injection sites (one per hemisphere) by microdrill with 0.5 mm drill bit. […]
# For GluN2B antibodies, the quantification was carried out with the imaged program by measuring the percentage of area occupied by the receptor immunoreactivity in the molecular layer of dentate gyrus. […]
# old mice (~20 months) [5] = assay: Open field test (OF); conditions: single bilateral intrahippocampal (hilus) injection, 2µl per site; tested one week after surgery; versus vehicle
# Procedure: as §3, §4
# Both open field (OF) and novel object recognition (NOR) tests were performed as described previously (Rodríguez-Matellán A, et al., In Vivo Reprogramming Ameliorates Aging Features in Dentate Gyrus Cells and Improves Memory in Mice. Stem Cell Reports. 2020 Nov 10;15(5):1056-1066. ). Locomotor activity as well as anxiety and depression-like behaviours in old mice were evaluated using OF. This test was used as habituation of NOR test. In brief, on the first day, the mice were placed individually for 10 min in a 45x45-cm plastic box with vertical opaque walls. Each session was recorded and different data like distance, speed, immobile time and time on center square of the box were analysed with Anymaze software. On the second day, mice were placed in the same box for 5 min, allowing them to explore two identical objects: A and B (two black rooks). […]
# Sox2 = Sox2 expression in dentate gyrus, immunoreactivity; conditions: different regions of dentate gyrus (hilus, GCL, SGZ); unique-dose injection in aged mice; versus vehicle
# Procedure: as §3, §7
Molecule,spatial memory (old mice (~20 months) [1]),PNN density labeled with WFA (perineuronal nets (PNN)),recognition memory at short term (old mice (~20 months) [2]),recognition memory at long-term (old mice (~20 months) [2]),doublecortin-ir cell density [3],early neuronal precursor like blbp-ir cells density [3],new born CIdU-ir cells density [3],one-week-old neurons (double Dcx/CldU-ir cells) density [3],"level of 5mC, mean intensity (5-methycytosine (5mC); granular neuronal layer of dentate gyrus (P=0.0132))","level of 5mC, mean intensity (5-methycytosine (5mC); pyramidal layer of CA1 (P-value=0.06))","level of 5mC, mean intensity (5-methycytosine (5mC); pyramidal layer of CA3 (P-value=0.05))",level of methylation at H4K20me3 (H4K20me3),level of methylation at H3K9me3 (H3K9me3),expression of Dnmt1 hippocampal levels (Dnmt1),level of 5hmc [4],expression of GluN2B immunoreactivity (percentage of area occupied) (GluN2B),anxiety-depression like behavior (central square time) (old mice (~20 months) [5]),"locomotor activity (distance travelled, speed and immobile time) (old mice (~20 months) [5])",SOX2 expression (Sox2)
"Nc1nc2ncc(CNc3ccc(C(=O)N[C@@H](CCC(=O)O)C(=O)O)cc3)nc2c(=O)[nH]1 [folate, folic acid]",improvement,significant reduction,not significant differences,improves,neither found differences,subtle but non-significant tendency of increase,subtle but non-significant tendency of increase,subtle but non-significant tendency of increase,significant changes,important tendency,important tendency,does not modify,does not modify,increased,not significant changes,increase,improvement,improvement,–
Vitamin B12,not revealed significant differences,–,not revealed significant differences,not revealed significant differences,–,–,–,–,–,–,–,–,–,–,–,–,not revealed any alteration,not revealed any alteration,–
CTVRTSAEC (source 1..9: organism (original language) = constructo sintetico) [FRa binding peptide],–,reducing the density,Not significant differences,significant improvement,–,–,–,–,–,–,–,–,–,–,–,increase,–,–,significant increase

# Reference: EP4413991A1, “PEPTIDE FOR COGNITIVE IMPROVEMENT” (Consejo Superior De Investigaciones Científicas, priority 2023, dated 2024)
